{"source": "patent US9617253B2", "about": "“Molecules having pesticidal utility, and intermediates, compositions, and processes, related thereto” (Dow AgroSciences LLC, priority 2015, dated 2017)", "format_in_all_cases": "in vivo", "key": {"[1]": {"tested_on": "Cabbage Looper (Trichoplusia ni, TRIPNI)", "experiment": "Bioassay on Cabbage Looper (CL), 128-well diet tray assay", "conditions": "168 h, second instar CL larvae, 50 μg/cm^2 on artificial diet, 25° C., five to seven days, average of eight wells, read-out: CL % Control (or Mortality) rating", "protocol": "(§1) Certain molecules disclosed in this document were tested against BAW and CL using procedures described in the following examples. In the reporting of the results, the “BAW & CL Rating Table” was used (See Table Section).\nBioassays on CL were conducted using a 128-well diet tray assay. One to five second instar CL larvae were placed in each well (3 mL) of the diet tray that had been previously filled with 1 mL of artificial diet to which 50 μg/cm^2 of the test molecule (dissolved in 50 μL of 90:10 acetone-water mixture) had been applied (to each of eight wells) and then allowed to dry. Trays were covered with a clear self-adhesive cover, vented to allow gas exchange, and held at 25° C., 14:10 light-dark for five to seven days. Percent mortality was recorded for the larvae in each well; activity in the eight wells was then averaged. The results are indicated in the table entitled “Table ABC: Biological Results” (See Table Section)."}, "[2]": {"tested_on": "Yellow Fever Mosquito (Aedes aegypti, AEDSAE)", "conditions": "about 1 day-old larvae, from 4000 ppm DMSO master plate, room temperature, scored after 3 days", "protocol": "Certain molecules disclosed in this document were tested against YFM using procedures described in the following paragraph. In the reporting of the results, the “YFM Rating Table” was used (See Table Section).\nMaster plates containing 400 μg of a molecule dissolved in 100 μL of dimethyl sulfoxide (DMSO) (equivalent to a 4000 ppm solution) are used. A master plate of assembled molecules contains 15 μL per well. To this plate, 135 μL of a 90:10 water/acetone mixture is added to each well. A robot (Biomek® NXP Laboratory Automation Workstation) is programmed to dispense 15 μL aspirations from the master plate into an empty 96-well shallow plate (“daughter” plate). There are 6 reps (“daughter” plates) created per master. The created “daughter” plates are then immediately infested with YFM larvae.\nThe day before plates are to be treated, mosquito eggs are placed in Millipore water containing liver powder to begin hatching (4 g into 400 mL). After the “daughter” plates are created using the robot, they are infested with 220 μL of the liver powder/larval mosquito mixture (about 1 day-old larvae). After plates are infested with mosquito larvae, a non-evaporative lid is used to cover the plate to reduce drying. Plates are held at room temperature for 3 days prior to grading. After 3 days, each well is observed and scored based on mortality. The results are indicated in the table entitled “Table ABC: Biological Results” (See Table Section)."}, "[3]": {"tested_on": "Beet Armyworm (Spodoptera exigua, LAPHEG)", "experiment": "Bioassay on Beet Armyworm (BAW), 128-well diet tray assay", "conditions": "168 h, second instar BAW larvae, 50 μg/cm^2 on artificial diet, 25° C., five to seven days, average of eight wells, read-out: BAW % Control (or Mortality) rating", "protocol": "as §1\nBioassays on BAW were conducted using a 128-well diet tray assay. One to five second instar BAW larvae were placed in each well (3 mL) of the diet tray that had been previously filled with 1 mL of artificial diet to which 50 μg/cm^2 of the test molecule (dissolved in 50 μL of 90:10 acetone-water mixture) had been applied (to each of eight wells) and then allowed to dry. Trays were covered with a clear self-adhesive cover, vented to allow gas exchange, and held at 25° C., 14:10 light-dark for five to seven days. Percent mortality was recorded for the larvae in each well; activity in the eight wells was then averaged. The results are indicated in the table entitled “Table ABC: Biological Results” (See Table Section)."}}}
{"smiles": "CCCc1ccc(C)cc1N1C(=O)CS/C1=N\\C(=O)Nc1ccc(COc2ncn(-c3ccc(OC(F)(F)F)cc3)n2)cc1", "note": "[F5, (Z)-1-(3-(5-Methyl-2-propylphenyl)-4-oxothiazolidin-2-ylidene)-3-(4-(((1-(4-(trifluoromethoxy)phenyl)-1H-1,2,4-triazol-3-yl)oxy)methyl)phenyl)urea]", "values": [{"measurement": "mortality at 50 µg/cm2", "setting": "[1]", "value": "50 to 100", "unit": "%"}, {"measurement": "YFM % Control (or Mortality) rating", "setting": "[2]", "value": "A (80-100)"}, {"measurement": "mortality at 50 µg/cm2", "setting": "[3]", "value": "50 to 100", "unit": "%"}]}
{"smiles": "COCc1ccc(C)cc1N1C(=O)CS/C1=N\\C(=O)Nc1ccc(COc2ncn(-c3ccc(OC(F)(F)F)cc3)n2)cc1", "note": "[F8, (Z)-1-(3-(2-(Methoxymethyl)-5-methylphenyl)-4-oxothiazolidin-2-ylidene)-3-(4-(((1-(4-(trifluoromethoxy)phenyl)-1H-1,2,4-triazol-3-yl)oxy)methyl)phenyl)urea]", "values": [{"measurement": "mortality at 50 µg/cm2", "setting": "[1]", "value": "50 to 100", "unit": "%"}, {"measurement": "YFM % Control (or Mortality) rating", "setting": "[2]", "value": "A (80-100)"}, {"measurement": "mortality at 50 µg/cm2", "setting": "[3]", "value": "50 to 100", "unit": "%"}]}
{"smiles": "COCc1ccc(C)cc1N1C(=O)CS/C1=N\\C(=O)Nc1ccc(COc2ncn(-c3ccc(OC(F)(F)F)cc3)n2)c(F)c1", "note": "[F9, (Z)-1-(3-Fluoro-4-(((1-(4-(trifluoromethoxy)phenyl)-1H-1,2,4-triazol-3-yl)oxy)methyl)phenyl)-3-(3-(2-(methoxymethyl)-5-methylphenyl)-4-oxothiazolidin-2-ylidene)urea]", "values": [{"measurement": "mortality at 50 µg/cm2", "setting": "[1]", "value": "50 to 100", "unit": "%"}, {"measurement": "YFM % Control (or Mortality) rating", "setting": "[2]", "value": "A (80-100)"}, {"measurement": "mortality at 50 µg/cm2", "setting": "[3]", "value": "50 to 100", "unit": "%"}]}
{"smiles": "CCCc1ccc(C)cc1N1C(=O)CS/C1=N\\C(=O)Nc1ccc(OCc2ncn(-c3ccc(OC(F)(F)F)cc3)n2)cc1", "note": "[F17, (Z)-1-(3-(5-Methyl-2-propylphenyl)-4-oxothiazolidin-2-ylidene)-3-(4-((1-(4-(trifluoromethoxy)phenyl)-1H-1,2,4-triazol-3-yl)methoxy)phenyl)urea]", "values": [{"measurement": "mortality at 50 µg/cm2", "setting": "[1]", "value": "50 to 100", "unit": "%"}, {"measurement": "YFM % Control (or Mortality) rating", "setting": "[2]", "value": "A (80-100)"}, {"measurement": "mortality at 50 µg/cm2", "setting": "[3]", "value": "50 to 100", "unit": "%"}]}
{"smiles": "Cc1ccc(C(C)C)c(N2C(=O)CS/C2=N\\C(=O)Nc2cc(F)c(OCc3ncn(-c4ccc(OC(F)(F)F)cc4)n3)c(F)c2)c1", "note": "[F41, (Z)-1-(3,5-Difluoro-4-((1-(4-(trifluoromethoxy)phenyl)-1H-1,2,4-triazol-3-yl)methoxy)phenyl)-3-(3-(2-isopropyl-5-methylphenyl)-4-oxothiazolidin-2-ylidene)urea]", "values": [{"measurement": "mortality at 50 µg/cm2", "setting": "[1]", "value": "50 to 100", "unit": "%"}, {"measurement": "YFM % Control (or Mortality) rating", "setting": "[2]", "value": "A (80-100)"}, {"measurement": "mortality at 50 µg/cm2", "setting": "[3]", "value": "50 to 100", "unit": "%"}]}
